Ki data for two compounds are collected here from BindingDB's records for doi:10.1021/jm030871u (2003).

Residues, ends and D or L forms follow the SMILES beside them. *: point of attachment. X1 = CC(C)CCC[C@@H](C)[C@H]1CCC2C3CC=C4C[C@H](SC[C@@H]5CCN6CC[C@@H](CSCC(=O)*)NC6=N5)CC[C@]4(C)C3CC[C@@]21C; X2 = CC(C)(C)[Si](OCC1CCN2CCC(CSCC(=O)*)NC2=N1)(c1ccccc1)c1ccccc1; OBn = c1ccc(CO*)cc1; Bn = c1ccc(C*)cc1

For this assay, the target named is Human immunodeficiency virus type 1 protease (Human immunodeficiency virus 1, UniProt Q72874). As to the kind of experiment: Competitive inhibition against HIV-1 Protease.

As usually defined, the Ki is a dissociation constant, usually derived from enzyme kinetics or from competition with a known ligand. A low value points to a stronger hold on the target.

`CC(C)CCC[C@@H](C)[C@H]1CCC2C3CC=C4C[C@H](SC[C@@H]5CCN6CC[C@@H](CSCC(=O)NCC(=O)N[C@@H](C)C(=O)N[C@H](C(=O)N[C@@H](CC(C)C)C(=O)N[C@@H](CC(N)=O)C(=O)N[C@@H](Cc7ccccc7)C(=O)OCc7ccccc7)[C@@H](C)OCc7ccccc7)NC6=N5)CC[C@]4(C)C3CC[C@@]21C` (some centres not stated) (X1-GAT(Bn)LNF-OBn): the affinity, expressed as Ki, was 0.4 µM. Under `CC[C@H](C)[C@H](NC(=O)CNC(=O)CSCC1CCN2CCC(CO[Si](c3ccccc3)(c3ccccc3)C(C)(C)C)N=C2N1)C(=O)N[C@@H](CO)C(=O)N[C@@H](Cc1ccc(O)cc1)C(=O)N[C@@H](CC(N)=O)C(=O)N[C@@H](CC(C)C)C(=O)OC` (some centres not stated) [Bicyclic Guanidinium Subunit] (X2-GISYNL-OMe) stands 6 µM.
